From publication PMC3901029 (Biochemical and biophysical research communications, 2013)

Target: MJ (MJ0796-G174W-G14C, single-Cys mutant based on Cys-less MJ0796; isolated nucleotide-binding domain) (Methanocaldococcus jannaschii, UniProt Q58206, C128I/C53G/G14C/G174W/K44A)
Experiment: Trp174 fluorescence quenching

MJ (MJ0796-G174W-G14C, single-Cys mutant based on Cys-less MJ0796; isolated nucleotide-binding domain), sequence (Q58206 whole entry G14C/K44A/C53G/C128I/G174W, the tested form may be a part): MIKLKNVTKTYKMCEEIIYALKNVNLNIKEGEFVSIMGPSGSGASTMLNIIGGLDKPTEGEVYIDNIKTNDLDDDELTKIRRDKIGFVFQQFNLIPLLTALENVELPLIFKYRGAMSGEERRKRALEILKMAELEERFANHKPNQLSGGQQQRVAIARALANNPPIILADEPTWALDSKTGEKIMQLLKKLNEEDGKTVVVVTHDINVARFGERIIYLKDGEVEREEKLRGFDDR

Kd: 70 ± 13 µM
Compound: Nc1ncnc2c1ncn2[C@@H]1O[C@H](COP(=O)(O)OP(=O)(O)OP(=O)(O)O)[C@@H](O)[C@H]1O [ATP]
